# Measurements published in patent publication US20250376446A1, “[…] OF A […] CANNABINOID” (Jazz Pharmaceuticals Research UK Limited, priority 2022, published 2025).
# Key:
# [1] = system: mouse model of generalised seizure (tonic hind limb extensor convulsions); experiment: Maximal electroshock seizure threshold (MEST) test in the mouse; conditions: for % change from vehicle (CC50) / CC50 +/- SEM: 30 min post dose
# Procedure: The efficacy of compound 1 was tested in a mouse model of generalised seizure, the maximal electroshock seizure threshold (MEST) test.
# The maximal electroshock seizure threshold (MEST) test is widely utilized preclinically to evaluate pro-or anti-convulsant properties of test compounds (Loscher et al., 1991).
# In the MEST test the ability of a drug to alter the seizure threshold current required to induce hind limb tonic extensor convulsions is measured according to an “up and down” method of shock titration (Kimball et al., 1957). An increase in seizure threshold is indicative of anti-convulsant effect.
# The ability of a test compound to alter the stimulus intensity, expressed as current (mA), required to induce the presence of tonic hind limb extensor convulsions, is assessed in the MEST.
# Naïve mice were acclimatised to the procedure room in their home cages for up to 7 days, with food and water available ad libitum.
# All animals were weighed at the beginning of the study and randomly assigned to treatment groups based on a mean distribution of body weight across groups.
# The first animal within a treatment group was given a shock at the expected or estimated CC50 current. For subsequent animals, the current was lowered or raised depending on the convulsions outcome from the preceding animal, in intervals of 5 mA.
# Data generated from each treatment group were used to calculate the CC50+SEM values for the treatment group.
# Vehicle: (5% ethanol, 10% solutol, 85% Saline) was prepared as follows: 1 mL of ethanol, 2 mL of solutol were warmed to 60° C., in 17 mL of saline (1:2:17).
# The test compound (compound 1) was administered at 2, 20 and 200 mg/kg (i.p.) in a 1:2:17 ethanol: solutol: 0.9% saline formulation.
# The data for each treatment group were recorded as the number of +'s and 0's at each current level employed and this information is then used to calculate the CC50 value (current required for 50% of the animals to show seizure behaviour)±standard error.
# Test compound effects were also calculated as percentage change in CC50 from the vehicle control group.
# Significant difference between drug-treated animals and controls were assessed according to Litchfield and Wilcoxon (1949).
# [2] = Stability of Form B to humidity stress (XRPD); format: physicochemical; conditions: 40° C./75% RH for 8 days
# Procedure: Form B material was exposed to high humidity conditions to determine stability on storage. Approximately 20 mg of Form B material was added to a vial and placed unsealed into a sealed cabinet with a relative humidity of 75% (controlled by a super-saturated salt solution) and a temperature of 40° C. for 8 days. The resultant material was analysed by XRPD.
# [3] = Stability of Form B to compression (die press, XRPD); format: physicochemical; conditions: compression @ 370 MPa for 24 hrs; for Output Form (compression experiment): XRPD
# Procedure: A die press was used to mimic the uniaxial stress experienced during formulation steps such as tableting. Form B (50 mg) was added to a KBr pellet die and compressed overnight at ˜370 MPa using a hydraulic press. The resultant solid disc was removed from the press and immediately analysed by XRPD.
# [4] = Stability of Form B to milling (ball mill, XRPD); format: physicochemical; conditions: no solvent, mill at 25 Hz, 3 x 2 mins; for Output Form (milling experiment): XRPD
# Procedure: A ball mill was used to mimic the effects of grinding that would be experienced during formulation steps such as dry blending and wet granulation. Form B (50 mg) was added to a milling chamber with an agate milling ball. Using a Retsch MM200 mixer mill, the material was milled for 6-10 minutes at a frequency of 25 Hz. Periodically, the milling was stopped and powder that adhered to the milling chamber was scraped down. The resultant milled material was analysed using XRPD.
# [5] = Retest of Form C after storage at ambient conditions; format: physicochemical; conditions: 6 days storage at ambient conditions
smiles,measurement,setting,value
"C=C(C)[C@@H]1CCC(C)=C[C@H]1c1c(O)cc(-c2cnn(C)c2)cc1O [Compound 1, (1′R,2′R)-5′-methyl-4-(1-methyl-1H-pyrazol-4-yl)-2′-(prop-1-en-2-yl)-1′,2′,3′,4′-tetrahydro-[1,1′-biphenyl]-2,6-diol]",% change from vehicle (CC50),"[1]; i.p., 2 mg/kg",27%
same,CC50 +/- SEM,"[1]; i.p., 2 mg/kg",30.8 ± 1.0 mA
same,% change from vehicle (CC50),"[1]; i.p., 20 mg/kg",116%
same,CC50 +/- SEM,"[1]; i.p., 20 mg/kg",52.5 ± 1.3 mA
same,% change from vehicle (CC50),"[1]; i.p., 200 mg/kg",712%
same,CC50 +/- SEM,"[1]; i.p., 200 mg/kg",197.5 ± 20.4 mA
same,Effect on MEST (in words),"[1]; i.p., 2, 20 and 200 mg/kg",dose-related increase in MEST
same,CC50 value compared to vehicle (in words),"[1]; i.p., 30 minutes before the test, all three doses (2, 20, 200 mg/kg)",statistically significant
"CN1C(=O)CN=C(c2ccccc2)c2cc(Cl)ccc21 [Diazepam, diazepam, reference compound]",% change from vehicle (CC50),"[1]; i.p., 2.5 mg/kg",223%
"C=C(C)[C@@H]1CCC(C)=C[C@H]1c1c(O)cc(-c2cnn(C)c2)cc1O [Form B, (1′R,2′R)-5′-methyl-4-(1-methyl-1H-pyrazol-4-yl)-2′-(prop-1-en-2-yl)-1′,2′,3′,4′-tetrahydro-[1,1′-biphenyl]-2,6-diol]",Result (humidity stress experiment),[2],solid
same,Output Form (humidity stress experiment),[2]; XRPD,stable to storage
same,Result (compression experiment),[3],solid
same,Output Form (compression experiment),[3],stable to compression
same,Output Form (compression experiment),[3]; listed as B,B (slight disorder)
same,Result (milling experiment),[4],solid
same,Output Form (milling experiment),[4],did not undergo a change in form
same,Output Form (milling experiment),[4]; listed as B,B (disordered)
"C=C(C)[C@@H]1CCC(C)=C[C@H]1c1c(O)cc(-c2cnn(C)c2)cc1O [Form C, (1′R,2′R)-5′-methyl-4-(1-methyl-1H-pyrazol-4-yl)-2′-(prop-1-en-2-yl)-1′,2′,3′,4′-tetrahydro-[1,1′-biphenyl]-2,6-diol]",Form after storage,[5],converted to a Form A
